In US20180327367A1, “MACROCYCLIC BROAD SPECTRUM ANTIBIOTICS” (priority 2015, published 2018):
Converted amounts (≈) assume the structure as drawn. Where two headings read alike, the source gives them in different places.

How the values were obtained:
[1] = biological target: T1, SpsB (Staphylococcus aureus signal peptidase) (Staphylococcus aureus, UniProt P0A070); assay: cell-based; type: biochemical; conditions: SpsB IC50, whole-cell S. aureus (USA300 background, overexpressing SpsB) as SpsB source; fluorogenic peptide substrate, kinetic read 30 min
T1 construct: This assay uses a suspension of Staphylococcus aureus cells as a source of SpsB instead of recombinant SpsB protein; endogenous in cells; host or cells: S. aureus, USA300 background, overexpressing SpsB (whole-cell suspension from frozen pellets)
Method in brief: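 Cleavage of an internally quenched (Dabcyl)βAla-KPAKAAE(Edans) peptide, added as 20 μM solution mixed 1:1 with cells, was followed for 30 min at 340/490 nm. SpsB came from a suspension of SpsB-overexpressing USA300 S. aureus in Tween-80-containing PBS buffer. Slopes plotted against 3-fold compound dilutions gave IC50.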

[2] = test system: Escherichia coli MC4100 harboring the IMP4213 (E. coli IMP); assay: microbe, parasite or virus in culture; type: cell-based; conditions: Escherichia coli, 22 h, read-out: MIC (μg/mL) E. coli IMP, E. coli MC4100 IMP4213, increased outer-membrane permeability; 35° C., 22 hours
Method in brief: (§1)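 Ten-point 2-fold series began at 4 μg/mL in protocol 2 and 0.5 μg/mL in protocol 3, in cation-adjusted MHB plus 0.002% Tween-80. Bacteria added to OD600 0.0005 final and incubated at 35° C for 22 hours per CLSI microdilution.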

[3] = test system: Methicillin Resistant Staphylococcus aureus strain USA 300, NRS384; assay: Minimum inhibitory concentration, broth micro-dilution (CLSI), S. aureus; type: cell-based; conditions: Staphylococcus aureus, MRSA / NRS 384 / USA300, 22 h, 35° C., 22 hours
Method in brief: as §1

[4] = test system: Escherichia coli ATCC 25922; assay: Minimum inhibitory concentration, broth micro-dilution (CLSI), E. coli; type: cell-based; conditions: Escherichia coli, ATCC25922, 22 h, 35° C., 22 hours
[5] = test system: Escherichia coli strain ATCC 25922; assay: Neutropenic thigh infection model; type: in vivo; conditions: neutropenic CD-1 mice, E. coli ATCC 25922, infusion 23 hours, 24 hours post infection, FIG. 1
Experimental: The ability of a compound to inhibit an infection of a bacterial pathogen can be measured using a murine neutropenic thigh infection model. The reduction of bacterial burden is a measure of antibacterial activity in vivo.
Jugular vein cannulated CD-1 mice were subjected to induced neutropenia (<100 cells/mm^3) by injecting 150 mg/kg and 100 mg/kg cyclophosphamide at day −5 and day −2 respectively. At day −1, saline was infused at […] for 12 hours using Harvard Apparatus PHD 2000 Infusion pumps. At day 0, mice were infected in the thigh muscle with 1×10^5 CFU/50 μL of Escherichia coli strain ATCC 25922. […]
At 24 hours post infection, bacterial burden in the thigh muscle was determined by plating the tissue homogenate in serial dilutions on blood agar plates.

[6] = MRSA USA 300 NRS384, read-out: MIC (μg/mL) S. aureus
[7] = E. coli ATCC 25922, read-out: MIC (μg/mL) E. coli
[8] = read-out: MIC (μg/mL) S. aureus, MRSA USA 300 NRS384
[9] = read-out: MIC (μg/mL) E. coli, E. coli ATCC 25922

T1 sequence (P0A070 whole entry): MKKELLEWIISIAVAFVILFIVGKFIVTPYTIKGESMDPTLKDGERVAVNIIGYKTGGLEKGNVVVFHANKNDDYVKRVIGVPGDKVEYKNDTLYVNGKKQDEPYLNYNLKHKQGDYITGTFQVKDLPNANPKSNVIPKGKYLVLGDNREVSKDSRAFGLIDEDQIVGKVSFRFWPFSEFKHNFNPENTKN

Row | SMILES | IC50 [1] [nM] | MIC [2] [µg/mL] | MIC [3, 6] [µg/mL] | MIC [4, 7] [µg/mL] | bacterial burden in the thigh muscle [5] | MIC [3, 8] [µg/mL] | MIC [4, 9] [µg/mL]
1 | CCCCc1ccc(-c2ccc(C(=O)N[C@@H](CCCN)C(=O)N(C)[C@@H]3C(=O)N[C@@H](C)C(=O)N[C@H](C(=O)NCC#N)Cc4ccc(OCCN)c(c4)-c4cc3ccc4OCCN)cc2)cc1 [Compound 135] | 0.54 | 0.023 (≈ 0.0259 µM) | 0.052 (≈ 0.0586 µM) | 0.22 (≈ 0.248 µM) | dose-dependent reduction in bacterial burden |  | 
2 | C[C@@H]1NC(=O)[C@@H](N(C)C(=O)[C@H](CO)NC(=O)c2ccc(-c3ccc(Cl)cc3)cc2)c2ccc(OCCN)c(c2)-c2cc(ccc2OCCN)C[C@@H](C(=O)NCC#N)NC1=O [Compound 233] | 4 | 0.13 (≈ 0.155 µM) |  |  |  | 0.5 (≈ 0.596 µM) | 32 (≈ 38.1 µM)
3 | CCCCc1ccc(Oc2ccc(C(=O)N[C@@H](CCN)C(=O)N(C)[C@@H]3C(=O)N[C@@H](C)C(=O)N[C@H](C(=O)NCC#N)Cc4ccc(OCCN)c(c4)-c4cc3ccc4OCCN)c(C)c2)cc1 [Compound 303] | 0.93 | 0.012 (≈ 0.0133 µM) | 0.047 (≈ 0.052 µM) | 0.19 (≈ 0.21 µM) |  |  | 
4 | C[C@@H]1NC(=O)[C@@H](N(C)C(=O)[C@H](CCCCN)NC(=O)c2ccc(-c3ccc(Cl)cc3)cc2)c2ccc(OCCN)c(c2)-c2cc(ccc2OCCN)C[C@@H](C(=O)NCC#N)NC1=O [Compound 482] | 1.6 | 0.13 (≈ 0.148 µM) |  |  |  | 0.13 (≈ 0.148 µM) | 16 (≈ 18.2 µM)
5 | CCC/C=C\c1ccc(C(=O)N[C@@H](CCN)C(=O)N(C)[C@@H]2C(=O)N[C@@H](C)C(=O)N[C@H](C(=O)NCC#N)Cc3ccc(OCCN)c(c3)-c3cc2ccc3OCCN)c(C)c1 [Compound 308] | 0.71 | 0.016 (≈ 0.0194 µM) | 0.063 (≈ 0.0765 µM) | 1 (≈ 1.21 µM) |  |  | 
6 | CCCCc1ccc(-c2ccc(C(=O)N[C@@H](CN)C(=O)N(C)[C@@H]3C(=O)N[C@@H](C)C(=O)N[C@H](C(=O)NCC#N)Cc4ccc(OCCO)c(c4)-c4cc3ccc4OCCN)cc2)cc1 [Compound 321] | 1.8 | 0.016 (≈ 0.0186 µM) |  |  |  | 0.38 (≈ 0.441 µM) | 1 (≈ 1.16 µM)
7 | CCCCCCCCCC(=O)NCC(=O)N[C@@H](CCN)C(=O)N(C)[C@@H]1C(=O)N[C@@H](C)C(=O)N[C@H](C(=O)NCC#N)Cc2ccc(OCCN)c(c2)-c2cc1ccc2OCCN [Compound 372] | 0.47 | 0.094 (≈ 0.111 µM) |  |  |  | 0.13 (≈ 0.153 µM) | 8 (≈ 9.42 µM)
8 | Cc1cc(OCC(C)C)ccc1C(=O)N[C@@H](CCN)C(=O)N(C)[C@@H]1C(=O)N[C@@H](C)C(=O)N[C@H](C(=O)NCC#N)Cc2ccc(OCCN)c(c2)-c2cc1ccc2OCCN [Compound 276] | 1.8 | 0.031 (≈ 0.0374 µM) | 0.58 (≈ 0.7 µM) | 2 (≈ 2.42 µM) |  |  | 
